{"source": "patent US7749760B2", "about": "“Vγ9Vδ2 T cell proliferation agent, method for producing activated Vγ9Vδ2 T cells, and uses thereof” (Hyogo College of Medicine, priority 2008, dated 2010)", "tested_on": "Vγ9Vδ2 T cells", "experiment": "Production of IFN-γ, TNF and GM-CSF, ELISA of culture supernatants", "format": "cell-based, human", "procedure": "Supernatants of the culture solutions having various conditions under which Vγ9Vδ2 T cells were cultured were assayed by ELISA so that the production of cytokines (e.g., IFN-γ, TNF, GM-CSF) was measured.\nThe Vγ9Vδ2 T cells were restimulated both in the presence of IL-18 and in the absence of IL-18. After 24 hours, a supernatant of the culture solution containing IL-18 and a supernatant of the culture solution devoid of IL-18 were compared. In this case also, the result obtained was similar to the above.", "key": {"[1]": {"conditions": "purified activated Vγ9Vδ2 T cells restimulated, 24 hours"}}, "data": [{"substance": "IL-18: interleukin 18, cytokine, IFN-γ inducing factor, obtained from GlaxoSmithKline K.K.", "values": [{"measurement": "production of GM-CSF, supernatant supplemented with IL-18 versus without", "setting": "data not shown", "value": "about 10 times"}, {"measurement": "production of IFN-γ, presence versus absence of IL-18", "setting": "[1]", "value": "far larger production"}, {"measurement": "production of TNFα, presence versus absence of IL-18", "setting": "[1]", "value": "far larger production"}]}]}
